Source: patent US20090143410A1, “Isoxazolines for Controlling Invertebrate Pests” (priority 2005, published 2009)

System: potato leafhopper (Empoasca fabae Harris)
Assay: Test D: control of potato leafhopper on bean plant, contact and/or systemic
Assay type: in vivo
Settings: sprayed at 50 ppm, 18 to 21 day old adults on Longio bean plant, 6 days, 19-21° C., 50-70% relative humidity, read-out: pest control: mortality
Experimental: Test compounds were formulated using a solution containing 10% acetone, 90% water and 300 ppm X-77™ Spreader Lo-Foam Formula non-ionic surfactant containing alkylarylpolyoxyethylene, free fatty acids, glycols and isopropanol (Loveland Industries, Inc. Greeley, Colo., USA). The formulated compounds were applied in 1 mL of liquid through a SUJ2 atomizer nozzle with ⅛ JJ custom body (Spraying Systems Co. Wheaton, Ill., USA) positioned 1.27 cm (0.5 inches) above the top of each test unit. All experimental compounds in these tests were sprayed at 250 ppm replicated three times. After spraying of the formulated test compound, each test unit was allowed to dry for 1 h and then a black, screened cap was placed on top. The test units were held for 6 days in a growth chamber at 25° C. and 70% relative humidity. Plant feeding damage was then visually assessed based on foliage consumed.
For evaluating control of potato leafhopper (Empoasca fabae Harris) through contact and/or systemic means, the test unit consisted of a small open container with a 5-6-day old Longio bean plant (primary leaves emerged) inside. White sand was added to the top of the soil and one of the primary leaves was excised prior to application. […] Each test unit was then visually assessed for insect mortality.

SMILES: O=C(NCc1ccccn1)c1cnc(C2=NOC(c3cc(Cl)cc(Cl)c3)(C(F)(F)F)C2)nc1C(F)(F)F (centres unmarked) [Compound 7, 2-[5-(3,5-dichlorophenyl)-4,5-dihydro-5-(trifluoromethyl)-3-isoxazolyl]-N-(2-pyridinylmethyl)-4-(trifluoromethyl)-5-pyrimidinecarboxamide]
- mortality at 50 ppm: ≥ 80%

SMILES: O=C(NCC(F)(F)F)c1cnc(C2=NOC(c3cc(Cl)cc(Cl)c3)(C(F)(F)F)C2)nc1C(F)(F)F (centres unmarked) [Compound 10, 2-[5-(3,5-dichlorophenyl)-4,5-dihydro-5-(trifluoromethyl)-3-isoxazolyl]-N-(2,2,2-trifluoroethyl)-4-(trifluoromethyl)-5-pyrimidinecarboxamide]
- mortality at 50 ppm: ≥ 80%
